Measured values taken from patent US20070224273A1, “Multifunctional Supramolecular Hydrogels as Biomaterials” (priority 2004, published 2007).
Blank lines part the entries; values can stand above or below the compound they belong to. Peptide text beside a SMILES is read from it. * marks the point of attachment. Butanoyl(4-pyren-1-yl) = O=C(CCCc1ccc2ccc3cccc4ccc1c2c34)*; Acetyl(1-naphthyl) = O=C(Cc1cccc2ccccc12)*

Tests used:
[1] = Artificial enzyme (hemin) activity assay, oxidation of pyrogallol by H2O2; format: biochemical
Experimental: Activity assay: Using the oxidation of pyrogallol (10.0 mM) by H2O2 (40.0 mM) as a model reaction and fixing the total concentration of Hemin to 5 μM in the mixture, we examined the activity of Hemin by monitoring the absorbance (420 nm) of purpurogallin, the product of Hemin-catalyzed oxidation of pyrogallol. The catalytic reaction course of the artificial enzyme was measured by monitoring the increase in absorbance along with time change. The absorbance increase in the first minute was defined to be the initial rate. The Lineweaver-Burk plots constructed by the reaction initial rates at different pyrogallol concentrations were used to estimate their kinetic constant values. The other substrates, including o-phenyldiamine (product absorption at 450 nm) and o-aminophenol (product absorption at 430 nm), were employed under the same procedure of pyrogallol.
Using the oxidation of pyrogallol as a model reaction and fixing the total concentration of Hemin to be 5 μM in the mixture, we obtained the catalytic rate of Hemin by monitoring the changes of the absorbance of purpurogallin, the product of Hemin-catalyzed oxidation of pyrogallol. […] The Lineweaver-Burk plots constructed by the reaction initial rates at different pyrogallol concentrations gave the activity of the artificial enzyme. The kinetics of the catalysis of artificial enzyme follows Michaelis-Menten equation, which indicated successful design and generation of an artificial peroxidase by encapsulating hemin into hydrogel. […] Two factors likely contribute to the high activity of Hemin(Phe) in pH 7,4 buffer: (i) localization of hemin on the nanofibers preserves the catalytic species—monomeric hemin; (ii) the mesoporous structure in hydrogel facilitates the substrate across the hydrogel network to access the hemin in the hydrogel.

acid phosphatase = assay: Visual hydrogelation assay for enzyme inhibitors (conversion of 9 to 10); format: biochemical; conditions: pH=6.0, 37° C., solution-to-gel transition after 30 minutes
Excerpt: FIG. 6 illustrates the design of the visual assay. The precursor, which acts as the substrate of an enzyme, transforms into a hydrogelator when the enzyme catalyzes its conversion. Then, the self-assembly of the hydrogelators in water induces the formation of hydrogel. When inhibitors competitively bind with the active site of the enzyme and block the conversion of the precursor catalyzed by the enzyme, no hydrogel forms. Therefore, the macroscopic solution-to-gel transition (which can be observed visually) of the solution of the precursor reports the inactivation of the enzyme by the inhibitors.
This approach has a unique feature—it enlists water molecules as part of the reporting system. In addition, no spectrometer is required for observing the solution-to-gel phase transition. This simple and inexpensive method may be useful, not only for screening the inhibitors but also, for detecting the presence of enzymes when appropriate precursors are used. To verify the feasibility of the design shown in FIG. 6, a simple amino acid derivative (9), which can be converted into a hydrogelator (10) by dephosphorylation, was used to screen the inhibitors for an acid phosphatase.
Since the acid phosphatase catalyzes the conversion of 9 to 10 and leads to hydrogelation at a pH=6.0 and 37° C., the event of hydrogelation can indicate the activity of inhibitors for the acid phosphatase itself. Pamidronate disodium, Zn^2+, and sodium orthovanadate (Na3VO4) were chosen to estimate their minimum inhibition concentrations for the acid phosphatase. The three compounds were first mixed with the enzyme at a series of concentrations, respectively, followed by the addition of 9 to the solutions 10 minutes after mixing. After an additional 30 minutes of incubation, the solution-to-gel phase transition indicates the minimum inhibition concentration of the compounds. From the changes of rows 2, 3, and 4 in FIG. 7, the minimum inhibition concentrations of Pamidronate disodium, Zn^2+, and sodium orthovanadate (Na3VO4) for the acid phosphatase were determined to be 33 mM, 0.33 mM, and 3.3 mM, respectively.

[2] = Solubility in water of pentapeptide derivatives; format: physicochemical
Excerpt: Most of the compounds can gel water under appropriate pH. When the pH becomes higher than the listed value, the gel tends to become a clear solution, while a lower pH always leads to precipitation rather than homogeneous gel formation. GAGAS (SEQ ID No. 1), the epitope with the least bulk side chains, appears to be quite hydrophilic in water.
However, it is still not a good candidate as a hydrophilic tail in a hydrogelator. […] Hydrogel by Fmoc-GVGVP can be obtained by carefully adjusting the pH to 4.8, with the hydrogel not being thermal-reversible. […] Upon heating, it also melts. All three compounds, with VPGVG as the hydrophilic part, fail to gel water at the tested condition. They all show sharp solubility changes with pH and low melting points.

[3] = Hydrogelation in water (ability, concentration, pH); format: physicochemical
Experimental: Typically, after 2 mg of 1 was suspended in 1.0 mL of water, the increase of temperature to 80° C. gave a clear solution. Cooling the solution to room temperature led to a slightly opaque hydrogel (Gel I, FIG. 20A). Similar procedure afforded the hydrogel of 2 (Gel II, FIG. 20B).

[4] = test system: C600 (β-lactamase negative E. coli control); assay: Cell lysate added to solution of precursor 3, sample A; format: biochemical; conditions: precursor 3 to form 1 after 6 hours
Experimental: (§1) To evaluate whether precursor 3 would respond to β-lactamases in bacteria, solution of precursor 3 was treated with sonicated lysates of E. coli.

[5] = test system: CTX-M13 (extended-spectrum β-lactamase); assay: Cell lysate added to solution of precursor 3, sample B; format: biochemical, E. coli
Experimental: as §1

[6] = molecular target: T1, CTX-M14 (extended-spectrum β-lactamase) (Escherichia coli, UniProt Q9L5C7); assay: Cell lysate added to solution of precursor 3, sample C; format: biochemical, E. coli
T1 construct: endogenous in cells; host or cells: E. coli (sonicated lysate)
Experimental: as §1

[7] = test system: JP995 (β-lactamase negative E. coli control); assay: Cell lysate added to solution of precursor 3, sample D; format: biochemical; conditions: precursor 3 to form 1 after 6 hours
Experimental: as §1

[8] = molecular target: T2, SHV-1 (broad-spectrum β-lactamase) (Escherichia coli, UniProt P0AD63); assay: Cell lysate added to solution of precursor 3, sample E; format: biochemical, E. coli; conditions: lysate SHV-1
T2 construct: endogenous in cells; host or cells: E. coli (sonicated lysate)
Experimental: as §1

[9] = molecular target: T3, TEM-1 (broad-spectrum β-lactamase) (Escherichia coli, UniProt P62593); format: biochemical, E. coli; conditions: lysate TEM-1
T3 construct: endogenous in cells; host or cells: E. coli (sonicated lysate)
Experimental: as §1

[10] = Solution of precursor 3, sample G (only water, no enzyme); format: biochemical; conditions: precursor 3 to form 1 after 6 hours
Experimental: as §1

[11] = precursor 3 to form 1 after 6 hours

T2 sequence (P0AD63 22-286): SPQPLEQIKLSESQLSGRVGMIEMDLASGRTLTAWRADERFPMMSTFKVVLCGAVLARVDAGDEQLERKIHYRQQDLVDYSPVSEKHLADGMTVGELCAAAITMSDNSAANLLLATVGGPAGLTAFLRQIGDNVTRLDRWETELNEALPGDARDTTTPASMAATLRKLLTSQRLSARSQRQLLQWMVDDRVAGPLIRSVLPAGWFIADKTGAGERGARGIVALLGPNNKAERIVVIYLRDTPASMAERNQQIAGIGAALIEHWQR
T3 sequence (P62593 24-286 limits assumed): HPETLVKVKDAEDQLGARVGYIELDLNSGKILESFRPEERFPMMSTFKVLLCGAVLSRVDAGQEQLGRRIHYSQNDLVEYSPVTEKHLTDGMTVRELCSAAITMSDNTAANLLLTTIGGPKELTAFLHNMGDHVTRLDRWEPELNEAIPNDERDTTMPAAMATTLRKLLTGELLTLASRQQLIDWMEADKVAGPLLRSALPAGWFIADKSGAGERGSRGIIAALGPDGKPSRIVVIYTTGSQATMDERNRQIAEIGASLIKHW
T1 sequence (Q9L5C7 entry or part of it): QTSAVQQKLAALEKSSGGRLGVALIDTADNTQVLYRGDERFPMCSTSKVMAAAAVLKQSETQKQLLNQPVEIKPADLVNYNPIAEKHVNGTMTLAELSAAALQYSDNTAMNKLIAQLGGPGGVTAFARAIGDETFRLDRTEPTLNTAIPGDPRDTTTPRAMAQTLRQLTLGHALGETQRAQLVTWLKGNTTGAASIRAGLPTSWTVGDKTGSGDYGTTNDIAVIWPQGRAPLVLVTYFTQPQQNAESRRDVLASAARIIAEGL

retention of catalytic ability during reaction ([1]; 15 minutes course, water buffer and toluene): lost most catalytic ability after 5 min
kcat in buffer ([1]; buffer (0.01 M, pH 7.4, phosphate)): 0.04 s⁻¹
kcat in toluene ([1]; toluene): 0.045 s⁻¹
Structure (SMILES): C=CC1=C(C)c2cc3[n-]c(cc4nc(cc5[n-]c(cc1n2)c(C)c5CCC(=O)O)C(CCC(=O)O)=C4C)c(C)c3C=C.[Cl-].[Fe+3] [Hemin(Free), hemin chloride]

minimum inhibition concentration (acid phosphatase): 33 mM
Structure (SMILES): NCCC(O)(P(=O)(O)O)P(=O)(O)O [Pamidronate disodium]

Structure (SMILES): CC(C)[C@H](NC(=O)CCCc1ccc2ccc3cccc4ccc1c2c34)C(=O)N[C@@H](Cc1ccc(O)cc1)C(=O)NCC(=O)NCC(=O)NCC(=O)O [Pyrene-VYGGG] ({Butanoyl(4-pyren-1-yl)}-VYGGG-OH)
solubility in water [2]: insoluble in water even under basic conditions

Structure (SMILES): [Na+].[Na+].[Na+].[O]=[V]([O-])([O-])[O-] [sodium orthovanadate]
minimum inhibition concentration (acid phosphatase): 3.3 mM

ability to gel water / form hydrogel [3]: fail to form supramolecular hydrogels
Structure (SMILES): O=C(Cc1ccc2ccccc2c1)NC1C(O)OC(CO)C(O)C1O [Nap-D-Glucosamine]

Structure (SMILES): C[C@H](NC(=O)CNC(=O)Cc1cccc2ccccc12)C(=O)NCC(=O)N[C@@H](C)C(=O)N[C@@H](CO)C(=O)O [Naph-GAGAS] ({Acetyl(1-naphthyl)}-GAGAS-OH)
solubility in water [2]: soluble in water even under low pH and high concentration

Structure (SMILES): NCC(=O)N[C@@H]1C(=O)N2C(C(=O)O)=C(CSCCNC(=O)[C@H](Cc3ccccc3)NC(=O)[C@H](Cc3ccccc3)NC(=O)Cc3ccc4ccccc4c3)CS[C@H]12 [Precursor 3]
Conversion (%) [4]: <0.5%
Conversion (%) ([4]; listed as precursor 3): < 0.5%
Gelation ([5]; precursor 3 0.35 wt %): + (Gels form in less than 2 hours)
Conversion (%) [5, 11]: 99.7%
Gelation ([6]; precursor 3 0.35 wt %): + (Gels form in less than 2 hours)
Conversion (%) [6, 11]: 99.5%
Conversion (%) [7]: 5.8%
Gelation ([8]; precursor 3 0.35 wt %): + (Gels form in less than 2 hours)
Conversion (%) [8, 11]: 65.2%
Gelation ([9]; precursor 3 0.35 wt %): + (Gels form in less than 2 hours)
Conversion (%) [9, 11]: 84.3%
Conversion (%) [10]: <0.5%
Conversion (%) ([10]; listed as precursor 3): < 0.5%
start of hydrogelation (dynamic time sweep) (β-lactamase; after addition of the β-lactamases): about 22 minutes
precursor 3 transformed into 1 (HPLC) (β-lactamase; one hour after addition of β-lactamase, room temperature): 49.0%
conversion of 3 to 1 (HPLC) (β-lactamase; β-lactamase and its inhibitor (clavulanic acid), after 12 hours): 3.4%

ability to gel water / form hydrogel [3]: fail to form supramolecular hydrogels
Structure (SMILES): O=C(Cc1ccc2ccccc2c1)NC(Cc1ccccc1)C(=O)NC(Cc1ccccc1)C(=O)NC1C(O)OC(CO)C(O)C1O [Nap-L-Phe-L-Phe-D-Glucosamine]

Structure (SMILES): O=C(O)[C@H]1/C(=C/CO)O[C@@H]2CC(=O)N21 [clavulanic acid, reference compound]
hydrogel formation with β-lactamase and inhibitor (β-lactamase; precursor 3 added to β-lactamase and inhibitor): failed to yield a hydrogel

minimum inhibition concentration (acid phosphatase): 0.33 mM
Structure (SMILES): [Zn+2] [Zn^2+]

Structure (SMILES): CC(C)[C@H](NC(=O)CNC(=O)Cc1cccc2ccccc12)C(=O)NCC(=O)N[C@H](C(=O)N1CCC[C@H]1C(=O)O)C(C)C [Naph-GVGVP] ({Acetyl(1-naphthyl)}-GVGVP-OH)
solubility in water [2]: either dissolves in water at a pH higher than 4 or becomes a suspension at a lower pH
